Source: patent US4401604A, “Process for preparing thiosulfenamide derivatives of N-phosphonomethylglycine triesters” (Monsanto Company, priority 1981, dated 1983)

How the values were obtained:
Assay type in all cases: in vivo
Barnyardgrass [1] = assay: Post-emergence herbicidal activity, greenhouse
How it was run: (§1)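 Seedlings or propagule-derived plants aged two to three weeks were sprayed post-emergence by atomizer with the test chemical in a spray holding about 0.4% by weight emulsifier. Plant injury relative to untreated controls was rated at roughly two and four weeks after treatment.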

Canada Thistle [2] = assay: Post-emergence herbicidal activity, greenhouse; conditions: Table I, 4 WAT
How it was run: as §1

Cocklebur [3] = assay: Post-emergence herbicidal activity, greenhouse
How it was run: as §1

Crabgrass = assay: Post-emergence herbicidal activity, greenhouse; conditions: Table II
How it was run: as §1

Downy Brome [4] = assay: Post-emergence herbicidal activity, greenhouse
How it was run: as §1

Hemp Sesbania = assay: Post-emergence herbicidal activity, greenhouse; conditions: Table II
How it was run: as §1

Johnsongrass [5] = assay: Post-emergence herbicidal activity, greenhouse; conditions: Table I, 4 WAT
How it was run: as §1

Lambsquarters [6] = assay: Post-emergence herbicidal activity, greenhouse
How it was run: as §1

Morningglory [7] = assay: Post-emergence herbicidal activity, greenhouse
How it was run: as §1

Panicum Spp = assay: Post-emergence herbicidal activity, greenhouse; conditions: Table II
How it was run: as §1

Quackgrass [8] = assay: Post-emergence herbicidal activity, greenhouse; conditions: Table I, 4 WAT
How it was run: as §1

Rice = assay: Post-emergence herbicidal activity, greenhouse; conditions: Table II
How it was run: as §1

Smartweed [9] = assay: Post-emergence herbicidal activity, greenhouse
How it was run: as §1

Sorghum = assay: Post-emergence herbicidal activity, greenhouse; conditions: Table II
How it was run: as §1

Soybean = assay: Post-emergence herbicidal activity, greenhouse; conditions: Table II
How it was run: as §1

Sugar Beet = assay: Post-emergence herbicidal activity, greenhouse; conditions: Table II
How it was run: as §1

Velvetleaf [10] = assay: Post-emergence herbicidal activity, greenhouse
How it was run: as §1

Wheat = assay: Post-emergence herbicidal activity, greenhouse; conditions: Table II
How it was run: as §1

Wild Buckwheat = assay: Post-emergence herbicidal activity, greenhouse; conditions: Table II
How it was run: as §1

Yellow Nutsedge [11] = assay: Post-emergence herbicidal activity, greenhouse; conditions: Table I, 4 WAT
How it was run: as §1

Barnyardgrass [12] = assay: Pre-emergent herbicidal activity; conditions: Table III; 11.2 kg/h; 2 WAT
How it was run: (§2)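 Soil-incorporated test: seeds/propagules on compacted soil, covering layer admixed with compound at known active-ingredient amount; bottom watering via pan apertures; wet sand bench, ~2 wk, ordinary sunlight; emergence counted vs untreated control → activity index from average % control.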

Canada Thistle [13] = assay: Pre-emergent herbicidal activity; conditions: Table III; 11.2 kg/h; 2 WAT
How it was run: as §2

Cocklebur [14] = assay: Pre-emergent herbicidal activity; conditions: Table III; 11.2 kg/h; 2 WAT
How it was run: as §2

Downy Brome [15] = assay: Pre-emergent herbicidal activity; conditions: Table III; 11.2 kg/h; 2 WAT
How it was run: as §2

Johnsongrass [16] = assay: Pre-emergent herbicidal activity; conditions: Table III; 11.2 kg/h; 2 WAT
How it was run: as §2

Lambsquarters [17] = assay: Pre-emergent herbicidal activity; conditions: Table III; 11.2 kg/h; 2 WAT
How it was run: as §2

Morningglory [18] = assay: Pre-emergent herbicidal activity; conditions: Table III; 11.2 kg/h; 2 WAT
How it was run: as §2

Quackgrass [19] = assay: Pre-emergent herbicidal activity; conditions: Table III; 11.2 kg/h; 2 WAT
How it was run: as §2

Smartweed [20] = assay: Pre-emergent herbicidal activity; conditions: Table III; 11.2 kg/h; 2 WAT
How it was run: as §2

Velvetleaf [21] = assay: Pre-emergent herbicidal activity; conditions: Table III; 11.2 kg/h; 2 WAT
How it was run: as §2

Yellow Nutsedge [22] = assay: Pre-emergent herbicidal activity; conditions: Table III; 11.2 kg/h; 2 WAT
How it was run: as §2

COC(=O)CN(CP(=O)(Oc1ccccc1OC)Oc1ccccc1OC)SSc1cccc(C(F)(F)F)c1 [V]
4 (100% control): post-emergence herbicidal activity index (Quackgrass [8]; 11.2 kg/h)
0 (0- 24% control): post-emergence herbicidal activity index (Barnyardgrass [1]; Table II, 0.28 kg/h, 2 WAT) | post-emergence herbicidal activity index (Barnyardgrass [1]; Table II, 1.12 kg/h, 4 WAT) | post-emergence herbicidal activity index (Canada Thistle [2]; 5.6 kg/h) | post-emergence herbicidal activity index (Cocklebur [3]; Table II, 0.28 kg/h, 2 WAT) | post-emergence herbicidal activity index (Crabgrass; 0.28 kg/h, 2 WAT) | post-emergence herbicidal activity index (Downy Brome [4]; Table II, 0.28 kg/h, 2 WAT) | post-emergence herbicidal activity index (Downy Brome [4]; Table II, 1.12 kg/h, 4 WAT) | post-emergence herbicidal activity index (Downy Brome [4]; Table II, 5.6 kg/h, 4 WAT) | post-emergence herbicidal activity index (Hemp Sesbania; 0.28 kg/h, 2 WAT) | post-emergence herbicidal activity index (Lambsquarters [6]; Table II, 0.28 kg/h, 2 WAT) | post-emergence herbicidal activity index (Morningglory [7]; Table II, 0.28 kg/h, 2 WAT) | post-emergence herbicidal activity index (Panicum Spp; 0.28 kg/h, 2 WAT) | post-emergence herbicidal activity index (Panicum Spp; 1.12 kg/h, 4 WAT) | post-emergence herbicidal activity index (Rice; 0.28 kg/h, 2 WAT) | post-emergence herbicidal activity index (Rice; 1.12 kg/h, 4 WAT) | post-emergence herbicidal activity index (Smartweed [9]; Table II, 0.28 kg/h, 2 WAT) | post-emergence herbicidal activity index (Sorghum; 0.28 kg/h, 2 WAT) | post-emergence herbicidal activity index (Sorghum; 1.12 kg/h, 4 WAT) | post-emergence herbicidal activity index (Sorghum; 5.6 kg/h, 4 WAT) | post-emergence herbicidal activity index (Soybean; 0.28 kg/h, 2 WAT) | post-emergence herbicidal activity index (Soybean; 1.12 kg/h, 4 WAT) | post-emergence herbicidal activity index (Sugar Beet; 0.28 kg/h, 2 WAT) | post-emergence herbicidal activity index (Velvetleaf [10]; Table I, 11.2 kg/h, 4 WAT) | post-emergence herbicidal activity index (Velvetleaf [10]; Table II, 0.28 kg/h, 2 WAT) | post-emergence herbicidal activity index (Velvetleaf [10]; Table II, 1.12 kg/h, 4 WAT) | post-emergence herbicidal activity index (Wheat; 0.28 kg/h, 2 WAT) | post-emergence herbicidal activity index (Wild Buckwheat; 0.28 kg/h, 2 WAT) | post-emergence herbicidal activity index (Wild Buckwheat; 1.12 kg/h, 4 WAT) | post-emergence herbicidal activity index (Wild Buckwheat; 5.6 kg/h, 4 WAT)
0 (0-24% control): pre-emergent herbicidal activity index (Cocklebur [14]) | pre-emergent herbicidal activity index (Lambsquarters [17]) | pre-emergent herbicidal activity index (Velvetleaf [21]) | pre-emergent herbicidal activity index (Yellow Nutsedge [22])
2 (50-74% control): post-emergence herbicidal activity index (Cocklebur [3]; Table I, 5.6 kg/h, 4 WAT) | post-emergence herbicidal activity index (Crabgrass; 1.12 kg/h, 4 WAT) | post-emergence herbicidal activity index (Hemp Sesbania; 1.12 kg/h, 4 WAT) | post-emergence herbicidal activity index (Johnsongrass [5]; 11.2 kg/h) | post-emergence herbicidal activity index (Morningglory [7]; Table I, 11.2 kg/h, 4 WAT) | post-emergence herbicidal activity index (Smartweed [9]; Table I, 11.2 kg/h, 4 WAT) | post-emergence herbicidal activity index (Smartweed [9]; Table II, 5.6 kg/h, 4 WAT) | post-emergence herbicidal activity index (Sugar Beet; 1.12 kg/h, 4 WAT) | post-emergence herbicidal activity index (Sugar Beet; 5.6 kg/h, 4 WAT) | pre-emergent herbicidal activity index (Canada Thistle [13]) | pre-emergent herbicidal activity index (Downy Brome [15])
1 (25-49% control): post-emergence herbicidal activity index (Canada Thistle [2]; 11.2 kg/h) | post-emergence herbicidal activity index (Cocklebur [3]; Table II, 1.12 kg/h, 4 WAT) | post-emergence herbicidal activity index (Downy Brome [4]; Table I, 5.6 kg/h, 4 WAT) | post-emergence herbicidal activity index (Downy Brome [4]; Table I, 11.2 kg/h, 4 WAT) | post-emergence herbicidal activity index (Hemp Sesbania; 5.6 kg/h, 4 WAT) | post-emergence herbicidal activity index (Johnsongrass [5]; 5.6 kg/h) | post-emergence herbicidal activity index (Morningglory [7]; Table I, 5.6 kg/h, 4 WAT) | post-emergence herbicidal activity index (Morningglory [7]; Table II, 1.12 kg/h, 4 WAT) | post-emergence herbicidal activity index (Morningglory [7]; Table II, 5.6 kg/h, 4 WAT) | post-emergence herbicidal activity index (Panicum Spp; 5.6 kg/h, 4 WAT) | post-emergence herbicidal activity index (Quackgrass [8]; 5.6 kg/h) | post-emergence herbicidal activity index (Rice; 5.6 kg/h, 4 WAT) | post-emergence herbicidal activity index (Smartweed [9]; Table I, 5.6 kg/h, 4 WAT) | post-emergence herbicidal activity index (Soybean; 5.6 kg/h, 4 WAT) | post-emergence herbicidal activity index (Velvetleaf [10]; Table I, 5.6 kg/h, 4 WAT) | post-emergence herbicidal activity index (Velvetleaf [10]; Table II, 5.6 kg/h, 4 WAT) | post-emergence herbicidal activity index (Wheat; 1.12 kg/h, 4 WAT) | post-emergence herbicidal activity index (Yellow Nutsedge [11]; 5.6 kg/h) | post-emergence herbicidal activity index (Yellow Nutsedge [11]; 11.2 kg/h) | pre-emergent herbicidal activity index (Morningglory [18]) | pre-emergent herbicidal activity index (Quackgrass [19]) | pre-emergent herbicidal activity index (Smartweed [20])
3 (75-100% control): pre-emergent herbicidal activity index (Barnyardgrass [12]) | pre-emergent herbicidal activity index (Johnsongrass [16])
3 (75-99% control): post-emergence herbicidal activity index (Barnyardgrass [1]; Table I, 5.6 kg/h, 4 WAT) | post-emergence herbicidal activity index (Barnyardgrass [1]; Table I, 11.2 kg/h, 4 WAT) | post-emergence herbicidal activity index (Barnyardgrass [1]; Table II, 5.6 kg/h, 4 WAT) | post-emergence herbicidal activity index (Cocklebur [3]; Table I, 11.2 kg/h, 4 WAT) | post-emergence herbicidal activity index (Cocklebur [3]; Table II, 5.6 kg/h, 4 WAT) | post-emergence herbicidal activity index (Crabgrass; 5.6 kg/h, 4 WAT) | post-emergence herbicidal activity index (Lambsquarters [6]; Table I, 5.6 kg/h, 4 WAT) | post-emergence herbicidal activity index (Lambsquarters [6]; Table I, 11.2 kg/h, 4 WAT) | post-emergence herbicidal activity index (Lambsquarters [6]; Table II, 1.12 kg/h, 4 WAT) | post-emergence herbicidal activity index (Lambsquarters [6]; Table II, 5.6 kg/h, 4 WAT) | post-emergence herbicidal activity index (Smartweed [9]; Table II, 1.12 kg/h, 4 WAT) | post-emergence herbicidal activity index (Wheat; 5.6 kg/h, 4 WAT)
